Values of other authors as cited in patent publication US6767992B1 (PTC Pharma AG, priority 2001, dated 2004).

Tested on: RPMI 8322 melanoma cells

Substance: L-prolyl-L-m-sarcolysyl-L-p-fluorophenylalanine [PSF]
- times more toxic than m-sarcolysine (relative to m-sarcolysine): 28 times
- times more toxic than melphalan (relative to melphalan): 35 times
